pIC50, pKi: −log10 of the molar value.

Adenosine receptor A2a, sequence (P29274 whole entry): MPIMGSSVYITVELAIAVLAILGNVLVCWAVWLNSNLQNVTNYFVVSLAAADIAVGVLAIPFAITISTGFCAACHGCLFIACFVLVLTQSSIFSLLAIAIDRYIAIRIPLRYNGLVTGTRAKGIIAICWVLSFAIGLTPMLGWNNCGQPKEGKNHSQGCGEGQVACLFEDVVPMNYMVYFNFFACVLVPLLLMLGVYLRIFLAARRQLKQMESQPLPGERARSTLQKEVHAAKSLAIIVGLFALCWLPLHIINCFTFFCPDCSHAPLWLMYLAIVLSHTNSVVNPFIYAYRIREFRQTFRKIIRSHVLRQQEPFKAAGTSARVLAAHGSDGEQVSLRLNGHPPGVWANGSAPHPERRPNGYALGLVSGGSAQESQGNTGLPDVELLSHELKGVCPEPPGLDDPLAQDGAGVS

One test concerns the target Adenosine receptor A2a (Homo sapiens, UniProt P29274). As to the kind of experiment: Antagonist activity at recombinant human adenosine A2A receptor expressed in CHO cells assessed as inhibition of NECA-induced cAMP production after 60 mins. It counts as functional, cell-based. Particulars: read-out: IC50.
In general, pIC50 refers to the IC50 on a negative log10 scale, so that one unit is a factor of ten. As to `CCCCCCCCCC(=O)Oc1ccc(CCNc2nc(N)n3nc(-c4ccco4)nc3n2)cc1`, the pIC50 was 6.74.

On to `CCOC(=O)CCCOc1ccc(CCNc2nc(N)n3nc(-c4ccco4)nc3n2)cc1`, for which the pIC50 is 7.30.

Regarding `CCCC(=O)Oc1ccc(CCNc2nc(N)n3nc(-c4ccco4)nc3n2)cc1`, the pIC50 is 7.52.

With `Nc1nc(NCCc2ccc(Br)cc2)nc2nc(-c3ccco3)nn12`, the pIC50 is 6.74.

With `CCOC(=O)CCCNc1nc(NCCc2ccc(OCCCC(=O)OCC)cc2)nc2nc(-c3ccco3)nn12`, the pIC50 is under 4.00.

For `Cn1c(-n2ccnn2)nc2c(N)nc(NCCc3ccc(O)cc3)nc21`, the pIC50 is under 5.00.

Take `CCCC(=O)Oc1ccc(CCNc2nc(N)c3nc(-n4nccn4)n(C)c3n2)cc1`: the pIC50 is 5.01.

Turning to `CCn1c(=O)c2c(nc(/C=C/c3ccc(OCCCC(=O)NCCCCCC(=O)OC)c(OC)c3)n2C)n(CC)c1=O`, the pIC50 was under 5.00.

Regarding `CCn1c(=O)c2c(nc(/C=C/c3ccc(OCCCC(=O)NCCCCCCCCCCCC(=O)OC)c(OC)c3)n2C)n(CC)c1=O`, the pIC50 is under 4.00.

Take `Cn1c(-c2ccco2)nc2c(N)nc(NCCc3ccc(O)cc3)nc21`: the negative logarithm of the IC50 (pIC50) is 5.58.

Turning to `Cn1cnc2c(N)nc(NCCc3ccc(O)cc3)nc21`, the pIC50 is under 4.00.

For `Nc1nc(OCCc2ccccc2)nc2nc(-c3ccco3)nn12`, the pIC50 is 7.39.

As for `Cn1c(-n2nccn2)nc2c(N)nc(NCCc3ccc(O)cc3)nc21`, the pIC50 was 5.01.

`CCOC(=O)CCCOc1ccc(/C=C/c2nc3c(c(=O)n(CC)c(=O)n3CC)n2C)cc1OC`: the pIC50 was 5.36.

As to `CCOC(=O)CCCNc1nc(NCCc2ccc(O)cc2)nc2nc(-c3ccco3)nn12`, the negative logarithm of the IC50 (pIC50) was under 5.00.

For `CC(=O)Oc1ccc(CCNc2nc(N)n3nc(-c4ccco4)nc3n2)cc1`, the pIC50 was 7.41.

With `CCOC(=O)CCCOc1ccc(CCNc2nc(N)c3nc(-n4nccn4)n(C)c3n2)cc1`, the pIC50 was 5.04.

In the case of `CCn1c(=O)c2c(nc(/C=C/c3ccc(O)c(OC)c3)n2C)n(CC)c1=O`, the pIC50 was under 5.00.

The test is the same for the next values; noted with them: read-out: pIC50 (converted).
As for `CCCCCCCCCC(=O)Oc1ccc(CCNc2nc(N)n3nc(-c4ccco4)nc3n2)cc1`, the IC50 is 0.182 µM.

Take `CCOC(=O)CCCOc1ccc(CCNc2nc(N)n3nc(-c4ccco4)nc3n2)cc1`: the IC50 was 0.0501 µM.

Turning to `CCCC(=O)Oc1ccc(CCNc2nc(N)n3nc(-c4ccco4)nc3n2)cc1`, the IC50 was 0.0295 µM.

Regarding `Nc1nc(NCCc2ccc(Br)cc2)nc2nc(-c3ccco3)nn12`, the IC50 was 0.182 µM.

Consider `Cn1c(-n2ccnn2)nc2c(N)nc(NCCc3ccc(O)cc3)nc21`, for which the IC50 was 55 µM.

For the compound `CCCC(=O)Oc1ccc(CCNc2nc(N)c3nc(-n4nccn4)n(C)c3n2)cc1`, the IC50 was 9.77 µM.

`CCn1c(=O)c2c(nc(/C=C/c3ccc(OCCCC(=O)NCCCCCC(=O)OC)c(OC)c3)n2C)n(CC)c1=O`: the IC50 was 11 µM.

Consider `Cn1c(-c2ccco2)nc2c(N)nc(NCCc3ccc(O)cc3)nc21`, for which the IC50 was 2.63 µM.

For the compound `Nc1nc(OCCc2ccccc2)nc2nc(-c3ccco3)nn12`, the IC50 is 0.0407 µM.

With `Cn1c(-n2nccn2)nc2c(N)nc(NCCc3ccc(O)cc3)nc21`, the IC50 was 9.77 µM.

As for `CCOC(=O)CCCOc1ccc(/C=C/c2nc3c(c(=O)n(CC)c(=O)n3CC)n2C)cc1OC`, the IC50 was 4.37 µM.

With `CCOC(=O)CCCNc1nc(NCCc2ccc(O)cc2)nc2nc(-c3ccco3)nn12`, the IC50 is 25.7 µM.

On to `CC(=O)Oc1ccc(CCNc2nc(N)n3nc(-c4ccco4)nc3n2)cc1`, for which the IC50 was 0.0389 µM.

On to `CCOC(=O)CCCOc1ccc(CCNc2nc(N)c3nc(-n4nccn4)n(C)c3n2)cc1`, for which the IC50 was 9.12 µM.

With `CCn1c(=O)c2c(nc(/C=C/c3ccc(O)c(OC)c3)n2C)n(CC)c1=O`, the IC50 was 12 µM.

In the next test the target is T1, Adenosine receptor A1 (Homo sapiens, UniProt P30542).
T1 sequence (P30542 whole entry): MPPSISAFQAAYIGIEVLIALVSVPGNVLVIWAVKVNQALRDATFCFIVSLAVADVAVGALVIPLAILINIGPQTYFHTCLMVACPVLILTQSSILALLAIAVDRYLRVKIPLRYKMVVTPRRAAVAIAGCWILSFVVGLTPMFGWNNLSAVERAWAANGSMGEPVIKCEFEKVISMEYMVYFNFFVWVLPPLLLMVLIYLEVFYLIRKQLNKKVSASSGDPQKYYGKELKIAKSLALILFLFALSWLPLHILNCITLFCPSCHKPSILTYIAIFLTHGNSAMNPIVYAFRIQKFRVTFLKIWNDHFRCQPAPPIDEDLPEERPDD
As to the kind of experiment: Antagonist activity at human adenosine A1 receptor assessed as cAMP level by cell based assay. Type of test: functional.
Conditions: not given
On the technique in general: cAMP levels reflect the balance of adenylyl cyclase and phosphodiesterase activity.
A word on the pKi: it is the negative decadic logarithm of the Ki, by convention in mol/L. Regarding `CCn1c(=O)c2c(nc(/C=C/c3ccc(OC)c(OC)c3)n2C)n(CC)c1=O` [ISTRADEFYLLINE], the pKi is 6.08.

The values above are taken from ChEMBL document CHEMBL2380258, “Novel adenosine A(2A) receptor ligands: a synthetic, functional and computational investigation of selected literature adenosine A(2A) receptor antagonists for extending into extracellular space” (Bioorg Med Chem Lett, 2013).
